# Experiments:
# [1] = molecular target: Tubulin alpha chain (Sus scrofa) (UniProt P02550); assay: Tested for the effect on polymerization of the tubulin present by microtubule assembly assay relative to taxol as1; assay type: functional
# B16 [2] = assay: Tested for cytotoxic effect against B16 melanoma cells relative to taxol as1; assay type: functional, Mus musculus
# [3] = molecular target: Tubulin alpha chain (Sus scrofa) (UniProt P02550); assay: Tested for the effect on polymerization of the tubulin present by microtubule assembly assay; assay type: functional
# B16 [4] = assay: Tested for cytotoxic effect against B16 melanoma cells; assay type: functional, Mus musculus
# Tubulin alpha chain (Sus scrofa), sequence (P02550 whole entry, looked up): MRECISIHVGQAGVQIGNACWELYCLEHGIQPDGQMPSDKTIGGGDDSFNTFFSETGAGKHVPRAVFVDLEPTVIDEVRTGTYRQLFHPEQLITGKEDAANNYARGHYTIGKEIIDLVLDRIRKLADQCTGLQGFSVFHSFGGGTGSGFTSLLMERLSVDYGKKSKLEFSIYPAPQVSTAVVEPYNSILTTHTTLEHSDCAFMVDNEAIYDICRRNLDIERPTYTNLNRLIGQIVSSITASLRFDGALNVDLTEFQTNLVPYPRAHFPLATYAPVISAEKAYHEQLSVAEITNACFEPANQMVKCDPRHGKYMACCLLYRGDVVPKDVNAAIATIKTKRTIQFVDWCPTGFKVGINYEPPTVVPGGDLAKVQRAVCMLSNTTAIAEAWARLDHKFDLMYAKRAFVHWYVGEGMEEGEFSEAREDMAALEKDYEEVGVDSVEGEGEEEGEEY
Compound,ED50 ratio [1],ED50 ratio [3],ED50 ratio (B16 [2]),ED50 ratio (B16 [4])
CC(=O)O[C@H]1C(=O)[C@@]2(C)[C@H]([C@H](OC(=O)c3ccccc3)[C@]3(O)C[C@H](OC(=O)[C@H](O)[C@@H](NC(=O)c4ccccc4)c4ccoc4)C(C)=C1C3(C)C)[C@]1(OC(C)=O)CO[C@@H]1C[C@@H]2O,0.9,–,3.3,–
CC(=O)O[C@H]1C(=O)[C@@]2(C)[C@H]([C@H](OC(=O)c3ccccc3)[C@]3(O)C[C@H](OC(=O)[C@H](O)[C@@H](NC(=O)c4ccccc4)c4ccncc4)C(C)=C1C3(C)C)[C@]1(OC(C)=O)CO[C@@H]1C[C@@H]2O,0.4,–,1.3,–
CC(=O)O[C@H]1C(=O)[C@@]2(C)[C@H]([C@H](OC(=O)c3ccccc3)[C@]3(O)C[C@H](OC(=O)[C@H](O)[C@@H](NC(=O)c4ccccc4)c4ccccn4)C(C)=C1C3(C)C)[C@]1(OC(C)=O)CO[C@@H]1C[C@@H]2O,0.7,–,0.8,–

# The next lines start with results.
ED50 ratio [1],ED50 ratio [3],Compound,ED50 ratio (B16 [2]),ED50 ratio (B16 [4])
0.9,–,CC(=O)O[C@H]1C(=O)[C@@]2(C)[C@H]([C@H](OC(=O)c3ccccc3)[C@]3(O)C[C@H](OC(=O)[C@H](O)[C@@H](NC(=O)c4ccccc4)c4ccco4)C(C)=C1C3(C)C)[C@]1(OC(C)=O)CO[C@@H]1C[C@@H]2O,0.3,–
0.5,–,CC(=O)O[C@H]1C(=O)[C@@]2(C)[C@H]([C@H](OC(=O)c3ccccc3)[C@]3(O)C[C@H](OC(=O)[C@H](O)[C@@H](NC(=O)c4ccccc4)c4cccnc4)C(C)=C1C3(C)C)[C@]1(OC(C)=O)CO[C@@H]1C[C@@H]2O,27,–
–,1,CC(=O)O[C@H]1C(=O)[C@@]2(C)[C@H]([C@H](OC(=O)c3ccccc3)[C@]3(O)C[C@H](OC(=O)[C@H](O)[C@@H](NC(=O)c4ccccc4)c4ccccc4)C(C)=C1C3(C)C)[C@]1(OC(C)=O)CO[C@@H]1C[C@@H]2O [PACLITAXEL],–,1
